Assay results: ChEMBL document CHEMBL4028888, “Design of MC1R Selective γ-MSH Analogues with Canonical Amino Acids Leads to Potency and Pigmentation” (J Med Chem, 2017)
Calls of active or inactive are those of the source. No cut-off for these calls is given here. Where a SMILES comes first, the peptide text is derived from it.

How the values were obtained:
Melanocortin receptor 5 [1] = molecular target: T1, Melanocortin receptor 5 (Homo sapiens, UniProt P33032); assay: Agonist activity at human MC5R expressed in HEK293 cells assessed as induction of intracellular cAMP accumulation at 10 uM after 3 mins relative to MT-2; assay type: cell-based; settings: 0.05 h, read-out: %max
T1 sequence (P33032 whole entry): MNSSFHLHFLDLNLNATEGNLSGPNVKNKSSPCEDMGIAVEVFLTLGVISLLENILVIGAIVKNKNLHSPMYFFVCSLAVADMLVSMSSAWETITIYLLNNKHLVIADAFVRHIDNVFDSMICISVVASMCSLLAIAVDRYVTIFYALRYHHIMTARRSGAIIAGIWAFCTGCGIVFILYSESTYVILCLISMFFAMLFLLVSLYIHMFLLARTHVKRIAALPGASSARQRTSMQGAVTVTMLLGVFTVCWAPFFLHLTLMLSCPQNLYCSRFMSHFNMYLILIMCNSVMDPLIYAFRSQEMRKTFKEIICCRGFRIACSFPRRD

Melanocortin receptor 4 [2] = molecular target: T2, Melanocortin receptor 4 (Homo sapiens, UniProt P32245); assay: Displacement of [125I]-NDP-alpha-MSH from human MC4R expressed in HEK293 cells at 10 uM after 40 mins by gamma counting method; assay type: cell-based
T2 sequence (P32245 whole entry): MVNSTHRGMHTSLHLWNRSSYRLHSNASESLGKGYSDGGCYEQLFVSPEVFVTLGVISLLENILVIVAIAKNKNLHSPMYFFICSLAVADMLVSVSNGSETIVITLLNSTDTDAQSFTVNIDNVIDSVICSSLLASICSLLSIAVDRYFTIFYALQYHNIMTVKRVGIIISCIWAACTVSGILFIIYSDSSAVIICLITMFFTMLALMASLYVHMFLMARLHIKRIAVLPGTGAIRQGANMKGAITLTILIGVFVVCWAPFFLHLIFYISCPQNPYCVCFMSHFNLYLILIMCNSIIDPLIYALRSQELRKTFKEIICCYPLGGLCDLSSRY

Melanocortin receptor 4 [3] = molecular target: T2, Melanocortin receptor 4; assay: Agonist activity at human MC4R expressed in HEK293 cells assessed as induction of intracellular cAMP accumulation at 10 uM after 3 mins relative to MT-2; assay type: cell-based; settings: 0.05 h, read-out: %max
[4] = molecular target: Melanocyte-stimulating hormone receptor (Homo sapiens) (UniProt Q01726); assay: Agonist activity at human MC1R expressed in HEK293 cells assessed as induction of intracellular cAMP accumulation at 10 uM measured after 3 mins relative to MT-2; assay type: functional, cell-based
Melanocyte-stimulating hormone receptor (Homo sapiens), sequence (Q01726 whole entry, looked up): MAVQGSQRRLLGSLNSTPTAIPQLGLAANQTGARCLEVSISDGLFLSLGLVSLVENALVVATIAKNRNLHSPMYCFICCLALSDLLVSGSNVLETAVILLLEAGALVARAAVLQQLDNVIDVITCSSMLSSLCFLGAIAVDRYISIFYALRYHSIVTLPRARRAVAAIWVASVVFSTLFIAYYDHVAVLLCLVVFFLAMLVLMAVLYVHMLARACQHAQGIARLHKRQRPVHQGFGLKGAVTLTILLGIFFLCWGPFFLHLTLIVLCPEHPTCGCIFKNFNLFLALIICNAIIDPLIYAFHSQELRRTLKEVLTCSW

[5] = molecular target: Melanocyte-stimulating hormone receptor (Homo sapiens) (UniProt Q01726); assay: Displacement of [125I]-NDP-alpha-MSH from human MC1R expressed in HEK293 cells at 10 uM after 40 mins by gamma counting method; assay type: cell-based
Anolis carolinensis [6] = assay: Induction of pigmentation effect in lizard at 2 ug/g, ip at 24 hrs post dose; assay type: functional, organism-based
Anolis carolinensis [7] = assay: Induction of pigmentation effect in lizard at 2 ug/g, ip at 1 min post dose; assay type: functional, organism-based
Melanocortin receptor 5 [8] = molecular target: T1, Melanocortin receptor 5; assay: Displacement of [125I]-NDP-alpha-MSH from human MC5R expressed in HEK293 cells at 10 uM after 40 mins by gamma counting method; assay type: cell-based
Melanocortin receptor 3 [9] = molecular target: T3, Melanocortin receptor 3 (Homo sapiens, UniProt P41968); assay: Agonist activity at human MC3R expressed in HEK293 cells assessed as induction of intracellular cAMP accumulation at 10 uM after 3 mins relative to MT-2; assay type: cell-based; settings: 0.05 h, read-out: %max
T3 sequence (P41968 whole entry): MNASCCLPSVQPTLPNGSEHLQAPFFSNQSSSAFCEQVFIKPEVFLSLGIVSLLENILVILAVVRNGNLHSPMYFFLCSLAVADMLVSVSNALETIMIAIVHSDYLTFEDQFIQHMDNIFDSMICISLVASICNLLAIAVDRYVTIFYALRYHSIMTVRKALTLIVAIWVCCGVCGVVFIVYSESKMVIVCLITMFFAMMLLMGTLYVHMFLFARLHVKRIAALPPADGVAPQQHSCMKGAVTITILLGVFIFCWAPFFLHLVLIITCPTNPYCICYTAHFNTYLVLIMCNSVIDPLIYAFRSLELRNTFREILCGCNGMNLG

[10] = molecular target: Melanocyte-stimulating hormone receptor (Homo sapiens) (UniProt Q01726); assay: Displacement of [125I]-NDP-alpha-MSH from human MC1R expressed in HEK293 cells after 40 mins by gamma counting method; assay type: cell-based
Melanocortin receptor 3 [11] = molecular target: T3, Melanocortin receptor 3; assay: Displacement of [125I]-NDP-alpha-MSH from human MC3R expressed in HEK293 cells at 10 uM after 40 mins by gamma counting method; assay type: cell-based
Melanocortin receptor 5 [12] = molecular target: T1, Melanocortin receptor 5; assay: Agonist activity at human MC5R expressed in HEK293 cells assessed as induction of intracellular cAMP accumulation after 3 mins; assay type: cell-based; settings: hek293, 0.05 h

SMILES | Emax at 10 µM (Melanocortin receptor 5 [1]) | inhibition at 10 µM (Melanocortin receptor 4 [2]) | inhibition [5] | inhibition at 10 µM (Melanocortin receptor 5 [8]) | also measured
CSCC[C@H](NC(=O)[C@@H](NC(=O)[C@@H](N)Cc1ccc(O)cc1)C(C)C)C(=O)NCC(=O)N[C@@H](Cc1cnc[nH]1)C(=O)N[C@@H](Cc1ccccc1)C(=O)N[C@@H](CCCNC(=N)N)C(=O)N[C@@H](Cc1c[nH]c2ccccc12)C(=O)N[C@@H](CC(=O)O)C(=O)N[C@@H](CCCNC(=N)N)C(=O)N[C@@H](Cc1ccccc1)C(=O)NCC(N)=O |  | 100% |  |  | Emax at 10 µM (Melanocortin receptor 4 [3]): 76%
CCCC[C@H](NC(=O)[C@@H](NC(=O)[C@H](Cc1ccc(O)cc1)NC(C)=O)C(C)C)C(=O)NCC(=O)N[C@@H](Cc1cnc[nH]1)C(=O)N[C@H](Cc1ccccc1)C(=O)N[C@@H](CCCNC(=N)N)C(=O)N[C@@H](Cc1c[nH]c2ccccc12)C(=O)N[C@@H](CC(=O)O)C(=O)N[C@@H](CCCNC(=N)N)C(=O)N[C@@H](Cc1ccccc1)C(=O)NCC(N)=O |  | 100% |  |  | 
CSCC[C@H](NC(=O)[C@H](CO)NC(=O)[C@H](Cc1ccc(O)cc1)NC(=O)[C@H](CO)NC(C)=O)C(=O)N[C@@H](CCC(=O)O)CN[C@@H](Cc1cnc[nH]1)C(=O)N[C@@H](Cc1ccccc1)C(=O)N[C@@H](CCCNC(=N)N)C(=O)N[C@@H](Cc1c[nH]c2ccccc12)C(=O)NCC(=O)N[C@@H](CCCCN)C(=O)N1CCC[C@H]1C(=O)N[C@H](C(N)=O)C(C)C |  |  | 100% |  | %max [4]: 100%
CC(C)C[C@H](NC(=O)[C@H](Cc1ccccc1)NC(=O)[C@@H]1CCCN1C(=O)CNC(=O)[C@H](CC(C)C)NC(=O)[C@@H](NC(=O)[C@@H](N)Cc1ccc(O)cc1)C(C)C)C(=O)N[C@@H](Cc1ccccc1)C(=O)N[C@@H](CC(=O)O)C(=O)N[C@@H](CCCNC(=N)N)C(=O)N[C@@H](Cc1ccccc1)C(=O)NCC(N)=O (H-YVLGPFLFDRFG-NH2) | 0% |  |  |  | 
CC(C)C[C@H](NC(=O)[C@@H](NC(=O)[C@@H](N)Cc1ccc(O)cc1)C(C)C)C(=O)NCC(=O)N1CCC[C@H]1C(=O)N[C@@H](Cc1ccccc1)C(=O)N[C@@H](CCCNC(=N)N)C(=O)N[C@@H](Cc1ccccc1)C(=O)N[C@@H](CC(=O)O)C(=O)N[C@@H](CCCNC(=N)N)C(=O)N[C@@H](Cc1ccccc1)C(=O)NCC(N)=O (H-YVLGPFRFDRFG-NH2) | 0% | 0% |  |  | Emax at 10 µM (Melanocortin receptor 3 [9]): 0%; inhibition [10]: 0%
CC(C)C[C@H](NC(=O)[C@@H](NC(=O)[C@@H](N)Cc1ccc(O)cc1)C(C)C)C(=O)NCC(=O)N1CCC[C@H]1C(=O)N[C@@H](Cc1ccccc1)C(=O)N[C@@H](CCCNC(=N)N)C(=O)N[C@@H](Cc1c[nH]c2ccccc12)C(=O)N[C@@H](CC(=O)O)C(=O)N[C@@H](CCCNC(=N)N)C(=O)N[C@@H](Cc1ccccc1)C(=O)NCC(N)=O (H-YVLGPFRWDRFG-NH2) |  |  |  |  | inhibition at 10 µM (Melanocortin receptor 3 [11]): 100%
CCCC[C@H](NC(=O)[C@@H](NC(=O)[C@@H](N)Cc1ccc(O)cc1)C(C)C)C(=O)NCC(=O)N[C@@H](Cc1c[nH]cn1)C(=O)N[C@H](Cc1ccc2ccccc2c1)C(=O)N[C@@H](CCCN=C(N)N)C(=O)NC(Cc1c[nH]c2ccccc12)C(=O)N[C@@H](CC(=O)O)C(=O)N[C@@H](CCCN=C(N)N)C(=O)N[C@@H](Cc1ccccc1)C(=O)NCC(N)=O (stereo in doubt) | 6% | 100% | 100% | 100% | %max [4]: 70%; inhibition at 10 µM (Melanocortin receptor 3 [11]): 100%; Emax at 10 µM (Melanocortin receptor 3 [9]): 6%; Activity (Melanocortin receptor 5 [12]): 0%

Further lines, with some results ahead:

Emax at 10 µM (Melanocortin receptor 5 [1]) | inhibition at 10 µM (Melanocortin receptor 4 [2]) | inhibition [5] | inhibition at 10 µM (Melanocortin receptor 5 [8]) | SMILES | also measured
0% | 100% |  |  | CC(C)C[C@H](NC(=O)[C@@H](NC(=O)[C@@H](N)Cc1ccc(O)cc1)C(C)C)C(=O)NCC(=O)N[C@@H](Cc1cnc[nH]1)C(=O)N[C@@H](Cc1ccccc1)C(=O)N[C@@H](CCCNC(=N)N)C(=O)N[C@@H](Cc1c[nH]c2ccccc12)C(=O)N[C@@H](CC(=O)O)C(=O)N[C@@H](CCCNC(=N)N)C(=O)N[C@@H](Cc1ccccc1)C(=O)NCC(N)=O | 
 |  | 100% | 0% | CC(C)C[C@H](NC(=O)[C@H](Cc1ccccc1)NC(=O)[C@H](Cc1cnc[nH]1)NC(=O)CNC(=O)[C@H](CC(C)C)NC(=O)[C@@H](NC(=O)[C@@H](N)Cc1ccc(O)cc1)C(C)C)C(=O)N[C@@H](Cc1ccccc1)C(=O)N[C@@H](CC(=O)O)C(=O)N[C@@H](CCCNC(=N)N)C(=O)N[C@@H](Cc1ccccc1)C(=O)NCC(N)=O (H-YVLGHFLFDRFG-NH2) | Activity (Anolis carolinensis [6]): inactive; Activity (Anolis carolinensis [7]): Active
 |  | 100% | 0% | CC(C)C[C@H](NC(=O)[C@H](Cc1ccccc1)NC(=O)[C@H](Cc1cnc[nH]1)NC(=O)CNC(=O)[C@H](CC(C)C)NC(=O)[C@@H](NC(=O)[C@@H](N)Cc1ccc(O)cc1)C(C)C)C(=O)N[C@@H](Cc1c[nH]c2ccccc12)C(=O)N[C@@H](CC(=O)O)C(=O)N[C@@H](CCCNC(=N)N)C(=O)N[C@@H](Cc1ccccc1)C(=O)NCC(N)=O (H-YVLGHFLWDRFG-NH2) | Emax at 10 µM (Melanocortin receptor 3 [9]): 0%
0% |  |  | 32% | CC(C)C[C@H](NC(=O)[C@H](Cc1ccccc1)NC(=O)[C@@H]1CCCN1C(=O)CNC(=O)[C@H](CC(C)C)NC(=O)[C@@H](NC(=O)[C@@H](N)Cc1ccc(O)cc1)C(C)C)C(=O)N[C@@H](Cc1c[nH]c2ccccc12)C(=O)N[C@@H](CC(=O)O)C(=O)N[C@@H](CCCNC(=N)N)C(=O)N[C@@H](Cc1ccccc1)C(=O)NCC(N)=O (H-YVLGPFLWDRFG-NH2) | Emax at 10 µM (Melanocortin receptor 4 [3]): 0%
